Experimental data: PubChem BioAssay (NCI)
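Cultured in 96-well plates, cells were exposed to test compound for 48 hours across five concentrations. Abbreviation: GI50, concentration required for 50% inhibition of growth. TGI: total growth inhibition.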

Experiments:
Assay in all cases: inhibition of tumour cell growth, NCI panel, 48 h
786-0 renal = test system: 786-0 renal
A498 renal = test system: A498 renal
A549 NSCLC = test system: A549 NSCLC
ACHN renal = test system: ACHN renal
BT-549 breast = test system: BT-549 breast
CAKI-1 renal = test system: CAKI-1 renal
CCRF-CEM leukemia = test system: CCRF-CEM leukemia
COLO 205 colon = test system: COLO 205 colon
DU-145 prostate = test system: DU-145 prostate
EKVX NSCLC = test system: EKVX NSCLC
HCC-2998 colon = test system: HCC-2998 colon
HCT-116 colon = test system: HCT-116 colon
HCT-15 colon = test system: HCT-15 colon
HL-60(TB) leukemia = test system: HL-60(TB) leukemia
HOP-62 NSCLC = test system: HOP-62 NSCLC
HOP-92 NSCLC = test system: HOP-92 NSCLC
HS 578T breast = test system: HS 578T breast
HT29 colon = test system: HT29 colon
IGROV1 ovarian = test system: IGROV1 ovarian
K-562 leukemia = test system: K-562 leukemia
KM12 colon = test system: KM12 colon
LOX IMVI melanoma = test system: LOX IMVI melanoma
M14 melanoma = test system: M14 melanoma
MALME-3M melanoma = test system: MALME-3M melanoma
MCF7 breast = test system: MCF7 breast
MDA-MB-231 breast = test system: MDA-MB-231 breast
MDA-MB-435 = test system: MDA-MB-435
MOLT-4 leukemia = test system: MOLT-4 leukemia
NCI-H226 lung = test system: NCI-H226 lung
NCI-H23 lung = test system: NCI-H23 lung
NCI-H460 lung = test system: NCI-H460 lung
NCI-H522 lung = test system: NCI-H522 lung
NCI/ADR-RES ovarian = test system: NCI/ADR-RES ovarian
OVCAR-3 ovarian = test system: OVCAR-3 ovarian
OVCAR-4 ovarian = test system: OVCAR-4 ovarian
OVCAR-5 ovarian = test system: OVCAR-5 ovarian
OVCAR-8 ovarian = test system: OVCAR-8 ovarian
PC-3 prostate = test system: PC-3 prostate
RPMI-8226 leukemia = test system: RPMI-8226 leukemia
RXF 393 renal = test system: RXF 393 renal
SF-268 CNS = test system: SF-268 CNS
SF-295 CNS = test system: SF-295 CNS
SF-539 CNS = test system: SF-539 CNS
SK-MEL-2 melanoma = test system: SK-MEL-2 melanoma
SK-MEL-28 melanoma = test system: SK-MEL-28 melanoma
SK-MEL-5 melanoma = test system: SK-MEL-5 melanoma
SK-OV-3 ovarian = test system: SK-OV-3 ovarian
SN12C renal = test system: SN12C renal
SNB-19 CNS = test system: SNB-19 CNS
SNB-75 CNS = test system: SNB-75 CNS
SR leukemia = test system: SR leukemia
SW-620 colon = test system: SW-620 colon
T-47D breast = test system: T-47D breast
TK-10 renal = test system: TK-10 renal
U251 CNS = test system: U251 CNS
UACC-257 melanoma = test system: UACC-257 melanoma
UACC-62 melanoma = test system: UACC-62 melanoma
UO-31 renal = test system: UO-31 renal

In the case of CCN1C(=S)N(CC)C2C1NC(=S)N2/N=C/C=C/c1ccccc1 (stereo unspecified), the GI50 (786-0 renal) is reported as 5.19 µM, the TGI (786-0 renal) is reported as 19.2 µM and the GI50 (A498 renal) is reported as 0.641 µM. For the same compound, the TGI (A498 renal) was 4.67 µM, the GI50 (A549 NSCLC) was 2.52 µM and the TGI (A549 NSCLC) was 17.8 µM. The GI50 (ACHN renal) was 4.87 µM, the TGI (ACHN renal) was 18.9 µM and the GI50 (BT-549 breast) was 5.44 µM. For the same compound, the TGI (BT-549 breast) was 21.7 µM, the GI50 (CAKI-1 renal) was 0.776 µM and the TGI (CAKI-1 renal) was 18.6 µM. It also gave a GI50 (CCRF-CEM leukemia) of 1.26 µM, a TGI (CCRF-CEM leukemia) of 12 µM and a GI50 (COLO 205 colon) of 1.11 µM. For the same compound, the TGI (COLO 205 colon) was 4.4 µM, the GI50 (DU-145 prostate) was 2.42 µM and the TGI (DU-145 prostate) was 12.2 µM. The GI50 (EKVX NSCLC) was 4.19 µM, the TGI (EKVX NSCLC) was 34.7 µM and the GI50 (HCC-2998 colon) was 2.84 µM. It also gave a TGI (HCC-2998 colon) of 16.9 µM, a GI50 (HCT-116 colon) of 1.3 µM and a TGI (HCT-116 colon) of 12.4 µM. The GI50 (HCT-15 colon) was 0.77 µM, the TGI (HCT-15 colon) was 14.3 µM and the GI50 (HL-60(TB) leukemia) was 0.387 µM. For the same compound, the TGI (HL-60(TB) leukemia) was 1.79 µM, the GI50 (HOP-62 NSCLC) was 2.26 µM and the TGI (HOP-62 NSCLC) was 15.7 µM. For the same compound, the GI50 (HOP-92 NSCLC) was 4 µM, the TGI (HOP-92 NSCLC) was 20.9 µM and the GI50 (HS 578T breast) was 2.11 µM. The TGI (HS 578T breast) was 8.96 µM, the GI50 (HT29 colon) was 0.511 µM and the TGI (HT29 colon) was 12.1 µM. The GI50 (IGROV1 ovarian) was 2.15 µM, the TGI (IGROV1 ovarian) was 16.3 µM and the GI50 (K-562 leukemia) was 0.382 µM. It also gave a TGI (K-562 leukemia) of 14.1 µM, a GI50 (KM12 colon) of 1.21 µM and a TGI (KM12 colon) of 14.7 µM. It also gave a GI50 (LOX IMVI melanoma) of 2.81 µM, a TGI (LOX IMVI melanoma) of 17 µM and a GI50 (M14 melanoma) of 0.879 µM. It also gave a TGI (M14 melanoma) of 12.9 µM, a GI50 (MALME-3M melanoma) of 2.09 µM and a TGI (MALME-3M melanoma) of 17.8 µM. The GI50 (MCF7 breast) was 0.513 µM, the TGI (MCF7 breast) was 16.4 µM and the GI50 (MDA-MB-231 breast) was 2.75 µM. For the same compound, the TGI (MDA-MB-231 breast) was 14.6 µM, the GI50 (MDA-MB-435) was 0.272 µM and the TGI (MDA-MB-435) was 0.856 µM. The GI50 (MOLT-4 leukemia) was 1.02 µM, the TGI (MOLT-4 leukemia) was 25.4 µM and the GI50 (NCI-H226 lung) was 6.73 µM. The TGI (NCI-H226 lung) was 24.4 µM, the GI50 (NCI-H23 lung) was 4.49 µM and the TGI (NCI-H23 lung) was 22 µM. For the same compound, the GI50 (NCI-H460 lung) was 1.79 µM, the TGI (NCI-H460 lung) was 12.7 µM and the GI50 (NCI-H522 lung) was 0.739 µM. The TGI (NCI-H522 lung) was 3.7 µM, the GI50 (NCI/ADR-RES ovarian) was 1.54 µM and the TGI (NCI/ADR-RES ovarian) was 12.6 µM. The GI50 (OVCAR-3 ovarian) was 0.52 µM, the TGI (OVCAR-3 ovarian) was 4.97 µM and the GI50 (OVCAR-4 ovarian) was 5.4 µM. It also gave a TGI (OVCAR-4 ovarian) of 19.6 µM, a GI50 (OVCAR-5 ovarian) of 3.92 µM and a TGI (OVCAR-5 ovarian) of 16.9 µM. The GI50 (OVCAR-8 ovarian) was 4.47 µM, the TGI (OVCAR-8 ovarian) was 23.5 µM and the GI50 (PC-3 prostate) was 1.52 µM. It also gave a TGI (PC-3 prostate) of 16 µM, a GI50 (RPMI-8226 leukemia) of 1.97 µM and a TGI (RPMI-8226 leukemia) of 6.64 µM. The GI50 (RXF 393 renal) was 1.57 µM, the TGI (RXF 393 renal) was 6.58 µM and the GI50 (SF-268 CNS) was 5.51 µM. It also gave a TGI (SF-268 CNS) of 27.2 µM, a GI50 (SF-295 CNS) of 1.04 µM and a TGI (SF-295 CNS) of 11.8 µM. For the same compound, the GI50 (SF-539 CNS) was 1.67 µM, the TGI (SF-539 CNS) was 5.4 µM and the GI50 (SK-MEL-2 melanoma) was 1.62 µM. For the same compound, the TGI (SK-MEL-2 melanoma) was 13.7 µM, the GI50 (SK-MEL-28 melanoma) was 4.81 µM and the TGI (SK-MEL-28 melanoma) was 21 µM. The GI50 (SK-MEL-5 melanoma) was 1.19 µM, the TGI (SK-MEL-5 melanoma) was 10.7 µM and the GI50 (SK-OV-3 ovarian) was 2.4 µM. For the same compound, the TGI (SK-OV-3 ovarian) was 14.7 µM, the GI50 (SN12C renal) was 3.49 µM and the TGI (SN12C renal) was 16.8 µM. The GI50 (SNB-19 CNS) was 2.8 µM, the TGI (SNB-19 CNS) was 20.2 µM and the GI50 (SNB-75 CNS) was 1.09 µM. For the same compound, the TGI (SNB-75 CNS) was 5.65 µM, the GI50 (SR leukemia) was 0.347 µM and the TGI (SR leukemia) was 5.92 µM. It also gave a GI50 (SW-620 colon) of 0.803 µM, a TGI (SW-620 colon) of 17.8 µM and a GI50 (T-47D breast) of 3.55 µM. The TGI (T-47D breast) was 18.2 µM, the GI50 (TK-10 renal) was 7.65 µM and the TGI (TK-10 renal) was 23.1 µM. The GI50 (U251 CNS) was 2.31 µM, the TGI (U251 CNS) was 13 µM and the GI50 (UACC-257 melanoma) was 3.68 µM. For the same compound, the TGI (UACC-257 melanoma) was 19.5 µM, the GI50 (UACC-62 melanoma) was 1.37 µM and the TGI (UACC-62 melanoma) was 14.9 µM. For the same compound, the GI50 (UO-31 renal) was 3.55 µM and the TGI (UO-31 renal) was 18.3 µM.
